Measurements from the supplement of paper PMC10331698.
± gives the standard deviation of the averaged measurements.

Columns and labels:
Assay in all cases: level (log10 ratio to DMSO vehicle control); higher = higher biomarker level / cell amount than vehicle control
[1] = compound: FC(F)(F)C(F)(F)C(F)(F)C(F)(F)C(F)(F)C(F)(F)C(F)(F)I [1-Iodopentadecafluoroheptane]; settings: in DMSO
Protocol: (§1)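 BioMAP Diversity Plus panel of 12 human primary cell co-culture systems (3C, 4H, LPS, SAg, BT, BF4T, BE3C, CASM3C, HDF3CGF, KF3CT, MyoF, Mphg). Compounds were added 1 h before stimulation and left for 24 h (MyoF 48 h; BT 72 h for soluble read-outs or 6 d for IgG). Biomarkers were read by ELISA, cytotoxicity by SRB, PBMC viability and proliferation by Alamar Blue. Each well value was divided by the mean of 8 DMSO control wells on the same plate and log10 transformed; duplicate blinded samples were tested at 4 concentrations.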

[2] = compound: COC(=O)C(F)(F)C(F)(F)OC(F)(C(F)(F)F)C(F)(F)OC(F)=C(F)F [Methyl perfluoro(3-(1-ethenyloxypropan-2-yloxy)propanoate)]; settings: in DMSO
Protocol: as §1

[3] = compound: O=S(=O)(O)C(F)(F)C(F)(F)C(F)(F)C(F)(F)C(F)(F)C(F)(F)C(F)(F)C(F)(F)C(F)(F)C(F)(F)F [Sodium perfluorodecanesulfonate]; settings: in DMSO
Protocol: as §1

[4] = compound: O=C(O)C(F)(F)C(F)(F)C(F)(F)C(F)(F)C(F)(F)C(F)(F)C(F)(F)C(F)(F)C(F)(F)C(F)F [11-H-Perfluoroundecanoic acid]; settings: in DMSO
Protocol: as §1

[5] = compound: O=C(O)C=CC(F)(C(F)(F)F)C(F)(F)F [3-(Perfluoroisopropyl)-2-propenoic acid]; settings: in DMSO
Protocol: as §1

[6] = compound: C=C(C)C(=O)OCCC(F)(F)C(F)(F)C(F)(F)C(F)(F)C(F)(F)C(F)(F)F [6:2 Fluorotelomer methacrylate]; settings: in DMSO
Protocol: as §1

Heptafluorobutyl iodide = compound: FC(F)(F)C(F)(F)C(F)(F)CI [Heptafluorobutyl iodide]; settings: in DMSO
Protocol: as §1

[7] = compound: C=CC(=O)OCC(F)(F)C(F)(F)C(F)(F)COC(=O)C=C [1H,1H,5H,5H-Perfluoro-1,5-pentanediol diacrylate]; settings: 6700 nM; in DMSO
Protocol: as §1

Row | Test System | level (log10) ([1]; 6700 nM) | level (log10) ([1]; 20000 nM) | level (log10) ([2]; 6700 nM) | level (log10) ([2]; 20000 nM) | level (log10) ([3]; 1500 nM) | level (log10) ([3]; 4400 nM) | level (log10) ([3]; 13000 nM) | level (log10) ([3]; 40000 nM) | level (log10) ([4]; 6700 nM) | level (log10) ([4]; 20000 nM) | level (log10) ([5]; 6700 nM) | level (log10) ([5]; 20000 nM) | level (log10) ([5]; 60000 nM) | level (log10) ([6]; 6700 nM) | level (log10) ([6]; 20000 nM) | level (log10) ([6]; 60000 nM) | level (log10) (Heptafluorobutyl iodide; 6700 nM) | level (log10) (Heptafluorobutyl iodide; 20000 nM) | level (log10) (Heptafluorobutyl iodide; 60000 nM) | level (log10) [7]
1 | 3C:CCL2/MCP-1 | -0.0175 ± 0.005 | 0.023 ± 0.027 | 0.0045 ± 0.0064 | 0.0175 ± 0.032 | 0.0315 ± 0.005 | -0.0195 ± 0.026 | 0.005 ± 0.033 | 0.0655 ± 0.032 | -0.0085 ± 0.0035 | 0 ± 0.017 | 0.0025 ± 0.022 | -0.009 ± 0.0014 | 0.019 ± 0.02 | 0.01 ± 0.051 | -0.0025 ± 0.016 | 0.022 ± 0.028 | 0.014 ± 0.051 | -0.014 ± 0.041 | 0.007 ± 0.037 | -0.026 ± 0.0042
2 | 3C:CD54/ICAM-1 | -0.0115 ± 0.00071 | 0.014 ± 0.016 | -0.02 ± 0.0042 | -0.0045 ± 0.016 | 0.0115 ± 0.005 | -0.0015 ± 0.00071 | 0.0115 ± 0.021 | 0.0145 ± 0.0078 | -0.012 ± 0.023 | -0.019 ± 0.0014 | -0.013 ± 0.033 | -0.0185 ± 0.025 | -0.003 ± 0.013 | -0.003 ± 0.0042 | -0.014 ± 0.011 | 0.0025 ± 0.015 | -0.0075 ± 0.015 | -0.0035 ± 0.0092 | -0.0055 ± 0.005 | -0.03 ± 0.014
3 | 3C:CD62E/E-Selectin | -0.0085 ± 0.00071 | -0.003 ± 0.011 | -0.034 ± 0.011 | -0.031 ± 0.013 | 0.0005 ± 0.0035 | 0.002 ± 0.0071 | 0.0185 ± 0.028 | 0.057 ± 0.05 | -0.0045 ± 0.025 | 0.0205 ± 0.013 | -0.009 ± 0.013 | -0.031 ± 0.0085 | -0.0155 ± 0.013 | -0.0145 ± 0.015 | -0.01 ± 0.033 | -0.0135 ± 0.035 | -0.012 ± 0.024 | -0.0115 ± 0.0021 | -0.0165 ± 0.03 | -0.135 ± 0.049
4 | 3C:CD87/uPAR | -0.0165 ± 0.018 | -0.0175 ± 0.0078 | 0.01 ± 0.041 | 0.031 ± 0.013 | -0.0055 ± 0.047 | -0.0275 ± 0.013 | -0.009 ± 0.037 | -0.222 ± 0.0085 | -0.0065 ± 0.018 | 0.0045 ± 0.023 | 0.025 ± 0.0071 | 0.033 ± 0.038 | 0.0465 ± 0.042 | 0.003 ± 0.035 | 0.004 ± 0.034 | 0.0195 ± 0.039 | -0.0375 ± 0.0092 | -0.05 ± 0.051 | -0.032 ± 0.041 | 0.014 ± 0.034
5 | 3C:CD106/VCAM-1 | -0.0165 ± 0.016 | -0.005 ± 0.011 | -0.016 ± 0.0057 | -0.0235 ± 0.015 | -0.0035 ± 0.0035 | 0.0055 ± 0.011 | -0.016 ± 0.013 | 0.0065 ± 0.0078 | -0.0105 ± 0.023 | -0.011 ± 0.0099 | -0.002 ± 0.03 | -0.039 ± 0.037 | -0.0205 ± 0.00071 | -0.0265 ± 0.026 | -0.029 ± 0.037 | -0.0185 ± 0.043 | -0.0115 ± 0.00071 | -0.0045 ± 0.028 | -0.0045 ± 0.0078 | -0.179 ± 0.025
6 | 3C:CD141/Thrombomodulin | -0.0215 ± 0.071 | -0.008 ± 0.081 | -0.036 ± 0.02 | -0.028 ± 0.034 | -0.015 ± 0.031 | -0.052 ± 0.013 | -0.0325 ± 0.019 | -0.0565 ± 0.0035 | -0.0065 ± 0.005 | -0.0255 ± 0.033 | -0.0125 ± 0.023 | -0.006 ± 0.0057 | 0.0045 ± 0.016 | -0.0155 ± 0.042 | -0.014 ± 0.048 | -0.072 ± 0.014 | -0.0335 ± 0.04 | -0.0305 ± 0.005 | -0.025 ± 0.014 | -0.124 ± 0.013
7 | 3C:CD142/Tissue Factor | -0.0085 ± 0.015 | -0.052 ± 0.076 | 0.0415 ± 0.064 | 0.0255 ± 0.0064 | -0.0005 ± 0.04 | -0.0075 ± 0.015 | 0.0205 ± 0.025 | -0.0695 ± 0.0078 | -0.011 ± 0.011 | -0.0245 ± 0.013 | -0.018 ± 0.065 | -0.036 ± 0.048 | 0.003 ± 0.061 | 0.0295 ± 0.0021 | 0.034 ± 0.013 | 0.021 ± 0.054 | -0.0315 ± 0.019 | 0.0095 ± 0.016 | -0.0155 ± 0.019 | -0.29 ± 0.1
